Reference: PubChem BioAssay AID1259407 (Chemical Carcinogenesis Research Information System (CCRIS), 2018)
The source made the active and inactive calls. How the calls were made is not given here.

System: CCRIS mutagenicity, Ames/micronucleus/aberration tests
Assay: CCRIS mutagenicity studies
[1] = Test System: AMES SALMONELLA TYPHIMURIUM, Strain/Indicator: TA98, Metabolic Activation: NONE, Method: STANDARD PLATE
[2] = Test System: AMES SALMONELLA TYPHIMURIUM, Strain/Indicator: TA98, Metabolic Activation: RAT, LIVER, S-9, AROCLOR 1254, Method: STANDARD PLATE
[3] = Test System: AMES SALMONELLA TYPHIMURIUM, Strain/Indicator: TA100, Metabolic Activation: NONE, Method: STANDARD PLATE
[4] = Test System: AMES SALMONELLA TYPHIMURIUM, Strain/Indicator: TA100, Metabolic Activation: RAT, LIVER, S-9, AROCLOR 1254, Method: STANDARD PLATE
[5] = Test System: AMES SALMONELLA TYPHIMURIUM, Strain/Indicator: TA98, Metabolic Activation: NONE, Method: PREINCUBATION
[6] = Test System: AMES SALMONELLA TYPHIMURIUM, Strain/Indicator: TA100, Metabolic Activation: NONE, Method: PREINCUBATION
[7] = Test System: AMES SALMONELLA TYPHIMURIUM, Strain/Indicator: TA1535, Metabolic Activation: NONE, Method: STANDARD PLATE
[8] = Test System: AMES SALMONELLA TYPHIMURIUM, Strain/Indicator: TA1535, Metabolic Activation: RAT, LIVER, S-9, AROCLOR 1254, Method: STANDARD PLATE
[9] = Test System: AMES SALMONELLA TYPHIMURIUM, Strain/Indicator: TA1537, Metabolic Activation: NONE, Method: STANDARD PLATE
[10] = Test System: AMES SALMONELLA TYPHIMURIUM, Strain/Indicator: TA1537, Metabolic Activation: RAT, LIVER, S-9, AROCLOR 1254, Method: STANDARD PLATE
[11] = Test System: AMES SALMONELLA TYPHIMURIUM, Strain/Indicator: TA1538, Metabolic Activation: NONE, Method: STANDARD PLATE
[12] = Test System: AMES SALMONELLA TYPHIMURIUM, Strain/Indicator: TA1538, Metabolic Activation: RAT, LIVER, S-9, AROCLOR 1254, Method: STANDARD PLATE
[13] = Test System: AMES SALMONELLA TYPHIMURIUM, Strain/Indicator: TA1535, Metabolic Activation: NONE, Method: PREINCUBATION

Measured: mutagenic call

c1ccc2c(c1)Oc1ccccc1O2
inactive: Test System: AMES SALMONELLA TYPHIMURIUM, Strain/Indicator: TA98(1,8-DNP6), Metabolic Activation: RAT, LIVER, S-9, PCB, Method: SUSPENSION inactive; negative | Test System: AMES SALMONELLA TYPHIMURIUM, Strain/Indicator: TA98(NR), Metabolic Activation: RAT, LIVER, S-9, PCB, Method: SUSPENSION inactive; negative | Test System: AMES SALMONELLA TYPHIMURIUM, Strain/Indicator: TA98, Metabolic Activation: NONE, Method: SUSPENSION inactive; negative | Test System: AMES SALMONELLA TYPHIMURIUM, Strain/Indicator: TA98, Metabolic Activation: RAT, LIVER, S-9, PCB, Method: SUSPENSION inactive; negative | Test System: AMES SALMONELLA TYPHIMURIUM, Strain/Indicator: TA100, Metabolic Activation: NONE, Method: SUSPENSION inactive; negative | Test System: AMES SALMONELLA TYPHIMURIUM, Strain/Indicator: TA100, Metabolic Activation: RAT, LIVER, S-9, PCB, Method: SUSPENSION inactive; negative

O=C(c1ccc(-c2ccccc2)cc1)C1OC1c1ccccc1 (stereo not given)
inactive: [1] inactive; negative | [2] inactive; negative | [3] inactive; negative | [4] inactive; negative

O=C1c2ccccc2C(=O)c2c1cc(O)c(C(=O)O)c2O
inactive: [5] inactive; negative | Test System: AMES SALMONELLA TYPHIMURIUM, Strain/Indicator: TA98, Metabolic Activation: RAT, LIVER, S-9, PCB, Method: PREINCUBATION inactive; negative | [6] inactive; negative | Test System: AMES SALMONELLA TYPHIMURIUM, Strain/Indicator: TA100, Metabolic Activation: RAT, LIVER, S-9, PCB, Method: PREINCUBATION inactive; negative

CCOP(=O)(OCC)O/C(=C\Cl)c1ccc(Cl)cc1Cl
inactive: [1] inactive; negative | [2] inactive; negative | [4] inactive; negative | Test System: AMES SALMONELLA TYPHIMURIUM, Strain/Indicator: TA100, Metabolic Activation: S-9 MIX, Method: STANDARD PLATE inactive; negative | [7] inactive; negative | [8] inactive; negative | [9] inactive; negative | [10] inactive; negative | [11] inactive; negative | [12] inactive; negative

CC(=O)O[C@]1(C(C)=O)CC[C@H]2[C@@H]3C4OC4(Cl)C4=CC(=O)[C@@H]5C[C@@H]5[C@]4(C)[C@H]3CC[C@@]21C (stereo not given in full)
inactive: [5] inactive; negative | [1] inactive; negative | Test System: AMES SALMONELLA TYPHIMURIUM, Strain/Indicator: TA98, Metabolic Activation: RAT, LIVER, S-9, AROCLOR 1254, Method: PREINCUBATION inactive; negative | [2] inactive; negative | [6] inactive; negative | [3] inactive; negative | Test System: AMES SALMONELLA TYPHIMURIUM, Strain/Indicator: TA100, Metabolic Activation: RAT, LIVER, S-9, AROCLOR 1254, Method: PREINCUBATION inactive; negative | [4] inactive; negative | [13] inactive; negative | [7] inactive; negative | Test System: AMES SALMONELLA TYPHIMURIUM, Strain/Indicator: TA1535, Metabolic Activation: RAT, LIVER, S-9, AROCLOR 1254, Method: PREINCUBATION inactive; negative | [8] inactive; negative | Test System: AMES SALMONELLA TYPHIMURIUM, Strain/Indicator: TA1537, Metabolic Activation: NONE, Method: PREINCUBATION inactive; negative | [9] inactive; negative | Test System: AMES SALMONELLA TYPHIMURIUM, Strain/Indicator: TA1537, Metabolic Activation: RAT, LIVER, S-9, AROCLOR 1254, Method: PREINCUBATION inactive; negative | [10] inactive; negative | Test System: AMES SALMONELLA TYPHIMURIUM, Strain/Indicator: TA1538, Metabolic Activation: NONE, Method: PREINCUBATION inactive; negative | [11] inactive; negative | Test System: AMES SALMONELLA TYPHIMURIUM, Strain/Indicator: TA1538, Metabolic Activation: RAT, LIVER, S-9, AROCLOR 1254, Method: PREINCUBATION inactive; negative | [12] inactive; negative

Nc1ccc(S(=O)(=O)O)cc1
inactive: Test System: AMES SALMONELLA TYPHIMURIUM, Strain/Indicator: TA97, Metabolic Activation: HAMSTER, LIVER, S-9, AROCLOR 1254 (10 OR 30%), Method: PREINCUBATION inactive; negative | Test System: AMES SALMONELLA TYPHIMURIUM, Strain/Indicator: TA97, Metabolic Activation: NONE, Method: PREINCUBATION inactive; negative | Test System: AMES SALMONELLA TYPHIMURIUM, Strain/Indicator: TA97, Metabolic Activation: RAT, LIVER, S-9, AROCLOR 1254 (10 OR 30%), Method: PREINCUBATION inactive; negative | Test System: AMES SALMONELLA TYPHIMURIUM, Strain/Indicator: TA98, Metabolic Activation: HAMSTER, LIVER, S-9, AROCLOR 1254 (10 OR 30%), Method: PREINCUBATION inactive; negative | [5] inactive; negative | Test System: AMES SALMONELLA TYPHIMURIUM, Strain/Indicator: TA98, Metabolic Activation: RAT, LIVER, S-9, AROCLOR 1254 (10 OR 30%), Method: PREINCUBATION inactive; negative | Test System: AMES SALMONELLA TYPHIMURIUM, Strain/Indicator: TA98, Metabolic Activation: RAT, LIVER, S-9, PHENOBARBITAL, Method: PREINCUBATION inactive; negative | Test System: AMES SALMONELLA TYPHIMURIUM, Strain/Indicator: TA100, Metabolic Activation: HAMSTER, LIVER, S-9, AROCLOR 1254 (10 OR 30%), Method: PREINCUBATION inactive; negative | [6] inactive; negative | Test System: AMES SALMONELLA TYPHIMURIUM, Strain/Indicator: TA100, Metabolic Activation: RAT, LIVER, S-9, AROCLOR 1254 (10 OR 30%), Method: PREINCUBATION inactive; negative | Test System: AMES SALMONELLA TYPHIMURIUM, Strain/Indicator: TA100, Metabolic Activation: RAT, LIVER, S-9, PHENOBARBITAL, Method: PREINCUBATION inactive; negative | Test System: AMES SALMONELLA TYPHIMURIUM, Strain/Indicator: TA1535, Metabolic Activation: HAMSTER, LIVER, S-9, AROCLOR 1254 (10 OR 30%), Method: PREINCUBATION inactive; negative | [13] inactive; negative | Test System: AMES SALMONELLA TYPHIMURIUM, Strain/Indicator: TA1535, Metabolic Activation: RAT, LIVER, S-9, AROCLOR 1254 (10 OR 30%), Method: PREINCUBATION inactive; negative | Test System: Ames Salmonella typhimurium, Strain/Indicator: TA102, Metabolic Activation: None, Method: Preincubation inactive; negative | Test System: Ames Salmonella typhimurium, Strain/Indicator: TA102, Metabolic Activation: Rat, Liver, S9, Aroclor 1254, Method: Preincubation inactive; negative | Test System: Ames Salmonella typhimurium, Strain/Indicator: TA104, Metabolic Activation: None, Method: Preincubation inactive; negative | Test System: Ames Salmonella typhimurium, Strain/Indicator: TA104, Metabolic Activation: Rat, Liver, S9, Aroclor 1254, Method: Preincubation inactive; negative

COC(=O)Nc1nc2ccc(O)cc2[nH]1
inactive: [1] inactive; negative | [2] inactive; negative | [3] inactive; negative | [4] inactive; negative | [7] inactive; negative | [8] inactive; negative | [9] inactive; negative | [10] inactive; negative
